Measurements taken from US11591326B2, “Inhibitors of protein arginine methyltransferase 5 (PRMT5), pharmaceutical products thereof, and methods thereof” (PHARMABLOCK SCIENCES (NANJING), INC., priority 2018, dated 2023).

Target: Human recombinant PRMT5 in complex with human recombinant MEP50 (Homo sapiens (Human), UniProt O14744)
Test: PRMT5/MEP50 AlphaLISA enzyme inhibitory assay
Format: biochemical
Settings: PRMT5/MEP50 25 nM, SAM 10 μM, Biotin-H4 peptide 30 nM
Description: Human recombinant PRMT5 in complex with human recombinant MEP50, co-expressed in an insect cell/baculovirus expression system was purchased from Reaction Biology (Malvern, Pa.). […] Anti-H4R3-Me AlphaLISA acceptor beads and Streptavidin labeled AlphaLISA donor beads were obtained from PerkinElmer (Waltham, Mass.). S-adenosylmethionine (SAM), Tween20, dimethylsulfoxide (DMSO), and Tris buffer were obtained from Sigma at the highest level of purity available.
General Procedure for PRMT5/MEP50 AlphaLISA Enzyme Inhibitory Assays: Assays were performed in the buffer consisting of 50 mM Tris, pH 8.5, 5 mM MgCl2, 50 mM NaCl with 0.01% Tween20 and 1 mM DTT added right before the assay. 2.5 μL of compound solution in the assay buffer with 4% DMSO and 5 μL of PRMT5/MRP50 complex/SAM mixture solution in the assay buffer which was pre-incubated for 30 minutes were added into a white low volume 384 well microtiter plate. This mixture solution was incubated for 15 minutes with gentle shaking at room temperature. Methyl transfer reaction was initiated by adding 2.5 μL of Biotin-H4 (1-21) peptide substrate solution in the assay buffer. Final concentrations of PRMT5/MEP50, SAM, Biotin-H4 peptide substrate, and DMSO were 25 nM, 10 μM, 30 nM, and 1%, respectively. The reaction was allowed to perform for 120 minutes in dark with gentle shaking at room temperature after which 5 μL of Anti-H4R3-Me AlphaLISA acceptor beads in detection buffer from the manufacturer was added into the reaction mixture followed by incubation for 60 minutes. 10 μL of Streptavidin labeled AlphaLISA donor beads in detection buffer was added into the mixture followed by 30 minute incubation. Final acceptor and donor beads concentrations were 10 μg/mL. Plates were read on an Envision multimode plate reader from PerkinElmer (Waltham Mass., USA) with an excitation wavelength of 680 nm and emission wavelength of 615 nm. IC50 values of inhibitors were obtained by fitting the fluorescence intensity vs inhibitor concentrations in a sigmoidal dose-response curve (variable slopes, four parameters) using Prism 7 (La Jolla, Calif.).

Sequence of Human recombinant PRMT5 in complex with human recombinant MEP50 (O14744 whole entry): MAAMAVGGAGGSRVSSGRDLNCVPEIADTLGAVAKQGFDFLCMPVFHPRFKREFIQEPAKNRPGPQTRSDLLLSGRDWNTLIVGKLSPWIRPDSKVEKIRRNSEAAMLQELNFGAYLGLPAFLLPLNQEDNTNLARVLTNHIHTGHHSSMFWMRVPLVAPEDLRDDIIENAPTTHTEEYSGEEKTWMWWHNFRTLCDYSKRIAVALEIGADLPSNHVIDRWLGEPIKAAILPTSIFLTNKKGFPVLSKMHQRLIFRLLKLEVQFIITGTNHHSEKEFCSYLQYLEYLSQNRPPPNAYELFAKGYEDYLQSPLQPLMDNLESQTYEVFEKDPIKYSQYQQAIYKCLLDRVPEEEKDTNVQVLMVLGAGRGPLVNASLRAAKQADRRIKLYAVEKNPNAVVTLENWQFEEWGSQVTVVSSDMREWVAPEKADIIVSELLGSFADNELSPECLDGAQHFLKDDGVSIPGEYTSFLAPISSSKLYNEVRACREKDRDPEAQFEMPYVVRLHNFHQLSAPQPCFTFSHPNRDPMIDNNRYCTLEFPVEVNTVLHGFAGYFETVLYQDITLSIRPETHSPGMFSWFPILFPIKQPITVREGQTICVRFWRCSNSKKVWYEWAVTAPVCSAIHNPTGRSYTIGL
Sequence of Human recombinant PRMT5 in complex with human recombinant MEP50 (Q9BQA1 whole entry partner): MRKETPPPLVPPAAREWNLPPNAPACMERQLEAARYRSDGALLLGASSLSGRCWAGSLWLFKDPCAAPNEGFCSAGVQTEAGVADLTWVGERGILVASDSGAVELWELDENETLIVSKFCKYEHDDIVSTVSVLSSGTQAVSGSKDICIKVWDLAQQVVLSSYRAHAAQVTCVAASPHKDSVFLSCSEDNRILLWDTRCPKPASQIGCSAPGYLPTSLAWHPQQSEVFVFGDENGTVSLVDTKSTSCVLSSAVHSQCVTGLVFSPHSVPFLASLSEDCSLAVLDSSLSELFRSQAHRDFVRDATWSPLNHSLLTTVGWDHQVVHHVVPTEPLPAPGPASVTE

Point of comparison: O=C1c2cc(Nc3ccnnc3)c(F)cc2OCCN1CC(O)CN1CCc2ccccc2C1 (stereo not shown) [Compound 50, 4-(3-(3,4-dihydroisoquinolin-2(1H)-yl)-2-hydroxypropyl)-8-fluoro-7-(pyridazin-4-ylamino)-3,4-dihydrobenzo[f][1,4]oxazepin-5(2H)-one], IC50 7.7 nM. Against it:
- O=C1c2cc(Nc3ccnnc3)cc(F)c2OCCN1CC(O)CN1CCc2ccccc2C1 (stereo not shown) [Compound 51, 4-(3-(3,4-dihydroisoquinolin-2(1H)-yl)-2-hydroxypropyl)-9-fluoro-7-(pyridazin-4-ylamino)-3,4-dihydrobenzo[f][1,4]oxazepin-5(2H)-one] — within 1.5-fold, 6.5 nM
- CC(=O)N1CCC(Nc2ccc3c(c2)C(=O)N(C[C@H](O)CN2CCc4ccccc4C2)C2CC3C2)CC1 [Compound 57a, (R)-8-((1-acetylpiperidin-4-yl)amino)-2-(3-(3,4-dihydroisoquinolin-2(1H)-yl)-2-hydroxypropyl)-2,3,4,5-tetrahydro-1H-3,5-methanobenzo[c]azepin-1-one] — 12-fold higher, 92.5 nM
- CC(=O)N1CCC(Nc2cc3c(cc2F)OCCN(C[C@@H](O)CN2CCc4ccccc4C2)C3=O)CC1 [Compound 17b, (S)-7-((1-acetylpiperidin-4-yl)amino)-4-(3-(3,4-dihydroisoquinolin-2(1H)-yl)-2-hydroxypropyl)-8-fluoro-3,4-dihydrobenzo[f][1,4]oxazepin-5(2H)-one] — 94-fold higher, 722 nM
- CC(=O)N1CCC(Nc2ccc3c(c2)C(=O)N(CC(O)CN2CCc4ccccc4C2)CC3)CC1 (racemic) [Compound 24, 7-((1-acetylpiperidin-4-yl)amino)-2-(3-(3,4-dihydroisoquinolin-2(1H)-yl)-2-hydroxypropyl)-3,4-dihydroisoquinolin-1(2H)-one] — 1.8-fold higher, 14 nM
- O=C1c2cc(Nc3ccnnc3)ccc2OCCN1CC(O)CN1CCc2ccccc2C1 (racemic) [Compound 30, 4-(3-(3,4-dihydroisoquinolin-2(1H)-yl)-2-hydroxypropyl)-7-(pyridazin-4-ylamino)-3,4-dihydrobenzo[f][1,4]oxazepin-5(2H)-one] — 1.7-fold higher, 13 nM
- Cn1cc(Nc2ccc3c(c2)C(=O)N(CC(O)CN2CCc4ccccc4C2)CC3)cn1 (stereo not shown) [Compound 12] — 3.8-fold higher, 29 nM
- CC(=O)N1CCC(Nc2ccc3c(c2)C(=O)N(C[C@@H](O)CN2CCc4ccccc4C2)CC3)CC1 [Compound 24b, (S)-7-((1-acetylpiperidin-4-yl)amino)-2-(3-(3,4-dihydroisoquinolin-2(1H)-yl)-2-hydroxypropyl)-3,4-dihydroisoquinolin-1(2H)-one] — 2.5-fold higher, 19 nM
- O=C1c2cc(Nc3ccnnc3)ccc2CCN1CC(O)CN1CCc2ccccc2C1 (stereo not shown) [Compound 28] — within 1.5-fold, 11.4 nM
- Cn1cc(Nc2ccc3c(c2)C(=O)N(C[C@@H](O)CN2CCc4ccccc4C2)CCO3)cn1 [Compound 29b, (S)-4-(3-(3,4-dihydroisoquinolin-2(1H)-yl)-2-hydroxypropyl)-7-((1-methyl-1H-pyrazol-4-yl)amino)-3,4-dihydrobenzo[f][1,4]oxazepin-5(2H)-one] — 16-fold higher, 126 nM
- O=C1c2cc(Nc3cnn(C4CCOCC4)c3)ccc2CCN1CC(O)CN1CCc2ccccc2C1 (stereo not shown) [Compound 25, 2-(3-(3,4-dihydroisoquinolin-2(1H)-yl)-2-hydroxypropyl)-7-((1-(tetrahydro-2H-pyran-4-yl)-1H-pyrazol-4-yl)amino)-3,4-dihydroisoquinolin-1(2H)-one] — within 1.5-fold, 10 nM
- CC1(C)CN(CC(O)CN2CCc3ccccc3C2)C(=O)c2cc(NC3COC3)ccc21 (stereo not shown) [Compound 15, 2-(3-(3,4-dihydroisoquinolin-2(1H)-yl)-2-hydroxypropyl)-4,4-dimethyl-7-(oxetan-3-ylamino)-3,4-dihydroisoquinolin-1(2H)-one] — 28-fold higher, 217 nM
- CC(=O)N1CCC(Nc2ccc3c(c2)C(=O)N(C[C@@H](O)CN2CCc4ccccc4C2)C2CC3C2)CC1 [Compound 57b, (S)-8-((1-acetylpiperidin-4-yl)amino)-2-(3-(3,4-dihydroisoquinolin-2(1H)-yl)-2-hydroxypropyl)-2,3,4,5-tetrahydro-1H-3,5-methanobenzo[c]azepin-1-one] — 27-fold higher, 209 nM
